One assay deals with T1, OXA-1 β-lactamase (Escherichia coli, UniProt P13661).
T1 construct: made in house; host or cells: E. coli BL21(DE3)
Kind of assay: β-lactamase enzyme inhibition, OXA-1. The format is biochemical. Conditions: Nitrocefin 100 μM, 486 nm; 15 min at 37° C. preincubation; read-out: IC50 OXA-1 (Class D). An outline of the steps: (§1)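 IC50 values reflect inhibitor concentrations halving the initial hydrolysis rate relative to uninhibited wells. Untagged recombinant enzymes were exposed to inhibitor at 37° C for 15 min before substrate addition: 100 μM nitrocefin for OXA-1 and p99 AmpC, imipenem for KPC-2, cefotaxime for SHV-5, each monitored spectrophotometrically for 10 min.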

Another assay concerns the target T2, KPC-2 β-lactamase (Klebsiella pneumoniae, UniProt Q9F663).
T2 construct: made in house; host or cells: E. coli BL21(DE3)
Kind of assay: β-lactamase enzyme inhibition, KPC-2. The format is biochemical. The settings on record: imipenem substrate, 300 nm; 15 min at 37° C. preincubation; read-out: IC50 KPC-2 (Class A). An outline of the steps:
as §1

The target of assay [1] is T3, VIM-2 metallo β-lactamase (Pseudomonas aeruginosa, UniProt Q9K2N0).
T3 construct: made in house; host or cells: E. coli BL21(DE3)
Kind of assay: β-lactamase enzyme inhibition, VIM-2. The settings on record: Nitrocefin 100 μM, 486 nm; 15 min at 37° C. preincubation; read-out: IC50 VIM-2 (Class B). Type of assay: biochemical. An outline of the steps: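 VIM-2 purified by Q sepharose anion exchange (50 mM Hepes pH 7.5, 0-600 mM NaCl gradient, two runs, >90% purity). Enzyme preincubated with inhibitor 15 min at 37° C; nitrocefin 100 μM final, absorbance at 486 nm followed 10 min. IC50 from initial hydrolysis rates versus inhibitor-free controls.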

For assay [2], the system named is S. aureus MSSA-7 producing penicillinase PC-1. Nature of the assay: broth microdilution MIC, S. aureus PC-1. Conditions: Fixed Pip (piperacillin) 4 μg/mL. The format is cell-based. An outline of the steps: (§2)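 First, strains were grown 3-5 hours in CAMHB; then compound dilutions (32 to 0.25 μg/mL final) received a beta-lactam overlay at 4 μg/mL final. Finally, plates were inoculated per CLSI and incubated 16-20 hours at 37° C.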

The test system of assay [3] is E. cloacae 144200 expressing Class C P99 AmpC. Nature of the assay: broth microdilution MIC, E. cloacae P99. Type of assay: cell-based. Conditions: Fixed CAZ (ceftazidime) 4 μg/mL. An outline of the steps: as §2
Assay [4] has as its system E. coli ESBL4 expressing CTX-M-15. Kind of assay: broth microdilution MIC, E. coli CTX-M-15. Conditions: Fixed CAZ (ceftazidime) 4 μg/mL. The format is cell-based. An outline of the steps: as §2
A general note: Dilution methods test growth across graded concentrations, often in twofold steps.

In assay [5] the test system is P. aeruginosa Ps296 expressing VIM-2. Kind of assay: broth microdilution MIC, P. aeruginosa VIM-2. Conditions: Fixed Mero (meropenem) 4 μg/mL. The format is cell-based. An outline of the steps: as §2
For the next assay, the target named is T4, p99 AmpC β-lactamase (Enterobacter cloacae, UniProt P05364).
T4 construct: made in house; host or cells: E. coli BL21(DE3)
Kind of assay: β-lactamase enzyme inhibition, p99 AmpC. The format is biochemical. An outline of the steps: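 Native untagged E. cloacae p99 AmpC was expressed in E. coli BL21(DE3) and purified by cation exchange and gel filtration. Enzyme was preincubated with inhibitor at 37°C for 15 min.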

For assay [6], the system named is K. pneumoniae 156319 expressing KPC-3. Kind of assay: broth microdilution MIC, K. pneumoniae KPC-3. The settings on record: Fixed Mero (meropenem) 4 μg/mL. Type of assay: cell-based. An outline of the steps:
as §2

Assay [7] has as its system K. pneumoniae A-1797 expressing KPC-2 and VIM-4. Nature of the assay: broth microdilution MIC, K. pneumoniae KPC-2 and VIM-4. The format is cell-based. Conditions: Fixed Mero (meropenem) 4 μg/mL. An outline of the steps:
as §2

The next assay addresses T5, SHV-5 β-lactamase (Klebsiella pneumoniae, UniProt P0A3M1).
T5 construct: made in house; host or cells: E. coli BL21(DE3)
Kind of assay: β-lactamase enzyme inhibition, SHV-5. The format is biochemical. An outline of the steps: as §1

pIC50: −log10 of the molar value.

T1 sequence (P13661 26-276): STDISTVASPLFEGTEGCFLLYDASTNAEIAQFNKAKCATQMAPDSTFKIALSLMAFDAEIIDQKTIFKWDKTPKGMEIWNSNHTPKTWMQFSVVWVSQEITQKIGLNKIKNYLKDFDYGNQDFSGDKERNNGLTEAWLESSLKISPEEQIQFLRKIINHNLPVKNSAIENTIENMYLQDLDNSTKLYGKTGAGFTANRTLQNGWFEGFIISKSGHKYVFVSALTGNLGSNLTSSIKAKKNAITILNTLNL
T5 sequence (P0A3M1 22-286): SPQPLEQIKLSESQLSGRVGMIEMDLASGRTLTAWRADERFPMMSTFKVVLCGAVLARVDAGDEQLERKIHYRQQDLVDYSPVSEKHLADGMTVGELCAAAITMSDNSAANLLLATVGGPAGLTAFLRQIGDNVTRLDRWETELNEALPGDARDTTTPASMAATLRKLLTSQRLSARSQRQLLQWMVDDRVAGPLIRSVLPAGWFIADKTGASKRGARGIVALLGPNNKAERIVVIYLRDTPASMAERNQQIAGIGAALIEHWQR
T4 sequence (P05364 21-381): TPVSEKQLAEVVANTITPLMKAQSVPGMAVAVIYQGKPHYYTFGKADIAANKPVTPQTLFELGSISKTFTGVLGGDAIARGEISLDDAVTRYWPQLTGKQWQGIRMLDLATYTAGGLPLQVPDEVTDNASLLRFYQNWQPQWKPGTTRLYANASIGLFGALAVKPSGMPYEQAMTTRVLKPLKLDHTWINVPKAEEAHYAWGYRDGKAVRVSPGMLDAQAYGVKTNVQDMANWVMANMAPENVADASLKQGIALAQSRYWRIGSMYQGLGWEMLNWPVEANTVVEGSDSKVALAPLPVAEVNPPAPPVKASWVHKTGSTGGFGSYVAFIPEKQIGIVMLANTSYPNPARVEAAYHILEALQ
T2 sequence (Q9F663 25-293, looked up): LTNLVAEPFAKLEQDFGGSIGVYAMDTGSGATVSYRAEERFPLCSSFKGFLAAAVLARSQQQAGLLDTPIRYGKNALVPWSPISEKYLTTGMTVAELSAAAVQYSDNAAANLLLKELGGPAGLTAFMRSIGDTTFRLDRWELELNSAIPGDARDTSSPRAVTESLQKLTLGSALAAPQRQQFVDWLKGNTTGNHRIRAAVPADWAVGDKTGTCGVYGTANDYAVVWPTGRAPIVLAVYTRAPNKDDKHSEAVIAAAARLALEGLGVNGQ

As a reminder, the pIC50 is the IC50 on a negative log10 scale, so that one unit is a factor of ten. With `O=C(/C=C/c1cocn1)N[C@H]1Cc2cccc(C(=O)O)c2OB1O` [Example 44, (R)-2-Hydroxy-3-(3-oxazol-4-yl-acryloylamino)-3,4-dihydro-2H-benzo[e][1,2]oxaborinine-8-carboxylicacid], the pIC50 at OXA-1 β-lactamase is greater than 7.00; at KPC-2 β-lactamase, greater than 7.00; in assay [1], 6.00 to 7.00; against p99 AmpC β-lactamase it was greater than 7.00; at SHV-5 β-lactamase, greater than 7.00. Further, in [2], the “MIC of exemplary compounds in presence of fixed β-lactams, S. aureus MSSA-7 PC-1” value (shortened to “MIC … S. aureus MSSA-7 PC-1”) is listed as “C (C represents the MIC in the presence of ≤4 g/mL of a β-lactamase inhibitor)”. In addition, in assay [3], the “MIC of exemplary compounds in presence of fixed β-lactams, E. cl. 144200 p99 AmpC” value (“MIC … E. cl. 144200 p99 AmpC” for short) is given as “C (C represents the MIC in the presence of ≤4 g/mL of a β-lactamase inhibitor)”. The “MIC of exemplary compounds in presence of fixed β-lactams, E. coli ESBL4 CTX-M-15” value (“MIC … E. coli ESBL4 CTX-M-15” for short) in assay [4] is on record as “C (C represents the MIC in the presence of ≤4 g/mL of a β-lactamase inhibitor)”. Also, the “MIC of exemplary compounds in presence of fixed β-lactams, P. aerug. Ps296 VIM-2” value (“MIC … P. aerug. Ps296 VIM-2” for short) in assay [5] is “C (C represents the MIC in the presence of ≤4 g/mL of a β-lactamase inhibitor)”. Also, the “MIC of exemplary compounds in presence of fixed β-lactams, K.P. 156319 KPC-3” value (“MIC of exemplary compounds … K.P. 156319 KPC-3” below) in [6] was “C (C represents the MIC in the presence of ≤4 g/mL of a β-lactamase inhibitor)”. Moreover, in assay [7], the “MIC of exemplary compounds in presence of fixed β-lactams, K.P. A-1797 KPC-2 VIM-4” value (shortened to “MIC … K.P. A-1797 KPC-2 VIM-4”) is “B (B represents the MIC in the presence of between 8 and 32 g/mL of a β-lactamase inhibitor)”.
As for `O=C(CCc1cocn1)N[C@H]1Cc2cccc(C(=O)O)c2OB1O` [Example 45, (R)-2-Hydroxy-3-(3-oxazol-4-yl-propionylamino)-3,4-dihydro-2H-benzo[e][1,2]oxaborinine-8-carboxylic acid], the pIC50 is greater than 7.00 on OXA-1 β-lactamase; greater than 7.00 on KPC-2 β-lactamase; 5.00 to 6.00 in assay [1]; greater than 7.00 at p99 AmpC β-lactamase; greater than 7.00 against SHV-5 β-lactamase. Besides, in [2], the “MIC … S. aureus MSSA-7 PC-1” value is given as “C (C represents the MIC in the presence of ≤4 g/mL of a β-lactamase inhibitor)”. For the same compound, the “MIC … E. cl. 144200 p99 AmpC” value in assay [3] is listed as “C (C represents the MIC in the presence of ≤4 g/mL of a β-lactamase inhibitor)”. In [4], the “MIC … E. coli ESBL4 CTX-M-15” value is given as “C (C represents the MIC in the presence of ≤4 g/mL of a β-lactamase inhibitor)”. In assay [5], the “MIC … P. aerug. Ps296 VIM-2” value is on record as “C (C represents the MIC in the presence of ≤4 g/mL of a β-lactamase inhibitor)”. The “MIC of exemplary compounds … K.P. 156319 KPC-3” value in [6] is given as “C (C represents the MIC in the presence of ≤4 g/mL of a β-lactamase inhibitor)”. Also, the “MIC … K.P. A-1797 KPC-2 VIM-4” value in [7] is “B (B represents the MIC in the presence of between 8 and 32 g/mL of a β-lactamase inhibitor)”.
With `CC(=O)N[C@H]1Cc2cccc(C(=O)O)c2OB1O` [Example 61, (R)-3-Acetylamino-2-hydroxy-3,4-dihydro-2H-benzo[e][1,2]oxaborinine-8-carboxylic acid], the negative-log IC50 (pIC50) is 6.00 to 7.00 at OXA-1 β-lactamase; greater than 7.00 on KPC-2 β-lactamase; 5.00 to 6.00 in [1]; greater than 7.00 at p99 AmpC β-lactamase; 6.00 to 7.00 at SHV-5 β-lactamase. Further, the “MIC … S. aureus MSSA-7 PC-1” value in assay [2] is “C (C represents the MIC in the presence of ≤4 g/mL of a β-lactamase inhibitor)”. Besides, the “MIC … E. cl. 144200 p99 AmpC” value in assay [3] is “C (C represents the MIC in the presence of ≤4 g/mL of a β-lactamase inhibitor)”. In addition, in assay [4], the “MIC … E. coli ESBL4 CTX-M-15” value is given as “C (C represents the MIC in the presence of ≤4 g/mL of a β-lactamase inhibitor)”. Also, the “MIC … P. aerug. Ps296 VIM-2” value in [5] was “C (C represents the MIC in the presence of ≤4 g/mL of a β-lactamase inhibitor)”. For the same compound, in assay [6], the “MIC of exemplary compounds … K.P. 156319 KPC-3” value was “C (C represents the MIC in the presence of ≤4 g/mL of a β-lactamase inhibitor)”. For the same compound, the “MIC … K.P. A-1797 KPC-2 VIM-4” value in assay [7] is “B (B represents the MIC in the presence of between 8 and 32 g/mL of a β-lactamase inhibitor)”.
As to `O=C(Cc1ccc2c(c1)CNC2)N[C@H]1Cc2cccc(C(=O)O)c2OB1O` [Example 64, (R)-3-(2-2,3-Dihydro-1H-isoindol-5-yl-acetylamino)-2-hydroxy-3,4-dihydro-2H-benzo[e][1,2]oxaborinine-8-carboxylic acid], the pIC50 on OXA-1 β-lactamase was greater than 7.00; on KPC-2 β-lactamase it was greater than 7.00; in [1] it was 6.00 to 7.00; on p99 AmpC β-lactamase, greater than 7.00; against SHV-5 β-lactamase it was greater than 7.00. For the same compound, in assay [2], the “MIC … S. aureus MSSA-7 PC-1” value was “C (C represents the MIC in the presence of ≤4 g/mL of a β-lactamase inhibitor)”. Further, in [3], the “MIC … E. cl. 144200 p99 AmpC” value was “C (C represents the MIC in the presence of ≤4 g/mL of a β-lactamase inhibitor)”. The “MIC … E. coli ESBL4 CTX-M-15” value in assay [4] is reported as “C (C represents the MIC in the presence of ≤4 g/mL of a β-lactamase inhibitor)”. Also, in assay [5], the “MIC … P. aerug. Ps296 VIM-2” value is reported as “C (C represents the MIC in the presence of ≤4 g/mL of a β-lactamase inhibitor)”. Besides, the “MIC of exemplary compounds … K.P. 156319 KPC-3” value in assay [6] is recorded as “C (C represents the MIC in the presence of ≤4 g/mL of a β-lactamase inhibitor)”. Besides, the “MIC … K.P. A-1797 KPC-2 VIM-4” value in assay [7] was “B (B represents the MIC in the presence of between 8 and 32 g/mL of a β-lactamase inhibitor)”.

The values above are taken from patent publication US11008346B2, “Beta-lactamase inhibitors” (priority 2014, dated 2021).
